Legend:
[1] = molecular target: Serine/threonine-protein kinase 16 (Homo sapiens) (UniProt O75716)
[2] = molecular target: Serine/threonine-protein kinase Nek6 (Homo sapiens) (UniProt Q9HC98)
[3] = molecular target: Serine/threonine-protein kinase OSR1 (Homo sapiens) (UniProt O95747)
[4] = molecular target: T1, 3-phosphoinositide-dependent protein kinase 1 (Homo sapiens) (UniProt O15530)
T1 sequence (whole entry): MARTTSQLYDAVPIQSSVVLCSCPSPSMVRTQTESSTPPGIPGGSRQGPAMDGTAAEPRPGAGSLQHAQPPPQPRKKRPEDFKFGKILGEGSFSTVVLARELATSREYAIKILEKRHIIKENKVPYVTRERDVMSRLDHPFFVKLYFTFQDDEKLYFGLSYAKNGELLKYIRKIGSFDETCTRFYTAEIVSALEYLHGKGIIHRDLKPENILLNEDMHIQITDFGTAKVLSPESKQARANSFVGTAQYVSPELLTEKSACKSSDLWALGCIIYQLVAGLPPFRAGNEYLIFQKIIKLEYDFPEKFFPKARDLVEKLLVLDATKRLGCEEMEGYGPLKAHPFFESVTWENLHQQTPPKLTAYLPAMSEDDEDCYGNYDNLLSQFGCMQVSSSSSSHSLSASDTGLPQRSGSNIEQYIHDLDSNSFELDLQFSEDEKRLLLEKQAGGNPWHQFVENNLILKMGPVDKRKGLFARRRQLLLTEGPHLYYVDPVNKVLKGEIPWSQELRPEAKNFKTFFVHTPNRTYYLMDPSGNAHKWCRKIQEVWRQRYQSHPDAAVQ

[5] = molecular target: T2, Serine/threonine-protein kinase PLK4 (Homo sapiens) (UniProt O00444)
T2 sequence (whole entry): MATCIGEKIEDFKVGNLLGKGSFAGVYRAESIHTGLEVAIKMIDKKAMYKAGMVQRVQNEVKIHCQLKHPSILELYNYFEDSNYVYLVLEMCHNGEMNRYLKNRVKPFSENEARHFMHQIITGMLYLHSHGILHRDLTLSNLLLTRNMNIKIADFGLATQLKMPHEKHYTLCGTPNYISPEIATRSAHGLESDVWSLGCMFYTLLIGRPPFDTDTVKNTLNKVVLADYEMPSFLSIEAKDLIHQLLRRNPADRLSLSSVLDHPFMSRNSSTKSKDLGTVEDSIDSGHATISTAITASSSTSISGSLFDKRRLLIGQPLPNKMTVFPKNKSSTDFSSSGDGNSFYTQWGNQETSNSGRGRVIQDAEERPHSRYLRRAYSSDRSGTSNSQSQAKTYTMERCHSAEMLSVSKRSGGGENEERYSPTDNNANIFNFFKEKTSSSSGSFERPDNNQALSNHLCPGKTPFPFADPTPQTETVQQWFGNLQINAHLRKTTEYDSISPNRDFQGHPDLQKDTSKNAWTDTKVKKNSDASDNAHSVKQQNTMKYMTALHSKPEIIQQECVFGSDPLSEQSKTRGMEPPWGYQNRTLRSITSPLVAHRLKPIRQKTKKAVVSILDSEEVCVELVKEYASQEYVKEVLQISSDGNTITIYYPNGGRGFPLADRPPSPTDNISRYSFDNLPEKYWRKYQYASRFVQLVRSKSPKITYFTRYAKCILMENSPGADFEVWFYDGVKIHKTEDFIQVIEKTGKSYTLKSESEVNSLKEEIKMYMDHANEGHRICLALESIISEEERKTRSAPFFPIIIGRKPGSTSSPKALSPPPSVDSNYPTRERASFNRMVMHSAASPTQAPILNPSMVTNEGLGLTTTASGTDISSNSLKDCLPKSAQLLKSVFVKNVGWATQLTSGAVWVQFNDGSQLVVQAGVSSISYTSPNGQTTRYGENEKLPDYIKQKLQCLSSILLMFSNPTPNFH

[6] = molecular target: Calcium/calmodulin-dependent protein kinase type II subunit beta (Homo sapiens) (UniProt Q13554)
[7] = molecular target: Cyclin-dependent kinase-like 1 (Homo sapiens) (UniProt Q00532)
Sequence of Cyclin-dependent kinase-like 1 (Homo sapiens) (Q00532 whole entry): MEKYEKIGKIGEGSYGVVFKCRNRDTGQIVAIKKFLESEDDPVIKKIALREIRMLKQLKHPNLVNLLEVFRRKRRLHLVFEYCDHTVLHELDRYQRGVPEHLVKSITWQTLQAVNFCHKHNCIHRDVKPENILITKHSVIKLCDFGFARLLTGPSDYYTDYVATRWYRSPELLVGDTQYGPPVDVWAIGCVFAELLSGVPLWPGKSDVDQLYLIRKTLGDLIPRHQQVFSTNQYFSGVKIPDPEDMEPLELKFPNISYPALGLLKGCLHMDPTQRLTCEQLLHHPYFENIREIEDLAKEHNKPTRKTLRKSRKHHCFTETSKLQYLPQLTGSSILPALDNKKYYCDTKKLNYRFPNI

Sequence of Calcium/calmodulin-dependent protein kinase type II subunit beta (Homo sapiens) (Q13554 whole entry): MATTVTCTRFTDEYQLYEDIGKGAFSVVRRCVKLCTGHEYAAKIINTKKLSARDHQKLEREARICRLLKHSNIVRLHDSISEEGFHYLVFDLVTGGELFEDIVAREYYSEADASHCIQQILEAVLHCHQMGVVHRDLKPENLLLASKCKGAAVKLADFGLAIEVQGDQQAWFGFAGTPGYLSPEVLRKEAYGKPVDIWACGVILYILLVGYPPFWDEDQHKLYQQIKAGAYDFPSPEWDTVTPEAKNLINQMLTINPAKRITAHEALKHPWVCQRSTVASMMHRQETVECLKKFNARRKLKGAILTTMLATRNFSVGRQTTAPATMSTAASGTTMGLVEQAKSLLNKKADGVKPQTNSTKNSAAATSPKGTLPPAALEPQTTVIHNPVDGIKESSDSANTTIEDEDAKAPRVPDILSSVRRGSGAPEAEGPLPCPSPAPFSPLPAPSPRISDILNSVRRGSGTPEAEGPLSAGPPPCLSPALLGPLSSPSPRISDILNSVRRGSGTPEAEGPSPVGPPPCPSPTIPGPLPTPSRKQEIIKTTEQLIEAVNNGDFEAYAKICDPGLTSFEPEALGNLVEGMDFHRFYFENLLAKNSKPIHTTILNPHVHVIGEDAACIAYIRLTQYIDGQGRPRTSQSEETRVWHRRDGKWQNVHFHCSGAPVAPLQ
Sequence of Serine/threonine-protein kinase OSR1 (Homo sapiens) (O95747 2-527 limits assumed): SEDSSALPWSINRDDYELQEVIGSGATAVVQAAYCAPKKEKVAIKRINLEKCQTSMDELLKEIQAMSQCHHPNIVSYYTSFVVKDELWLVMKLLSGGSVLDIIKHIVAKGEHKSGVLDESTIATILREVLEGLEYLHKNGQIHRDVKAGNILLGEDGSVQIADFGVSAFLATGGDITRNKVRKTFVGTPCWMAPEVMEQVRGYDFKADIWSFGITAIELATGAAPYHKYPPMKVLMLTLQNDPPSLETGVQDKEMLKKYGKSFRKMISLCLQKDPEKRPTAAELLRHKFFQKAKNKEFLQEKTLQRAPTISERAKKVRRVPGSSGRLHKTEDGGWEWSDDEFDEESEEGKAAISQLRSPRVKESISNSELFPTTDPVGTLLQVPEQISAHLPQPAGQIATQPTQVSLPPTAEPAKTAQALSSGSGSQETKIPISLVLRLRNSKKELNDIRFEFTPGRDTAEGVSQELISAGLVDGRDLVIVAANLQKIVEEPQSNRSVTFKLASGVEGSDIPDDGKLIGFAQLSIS
Sequence of Serine/threonine-protein kinase Nek6 (Homo sapiens) (Q9HC98 whole entry): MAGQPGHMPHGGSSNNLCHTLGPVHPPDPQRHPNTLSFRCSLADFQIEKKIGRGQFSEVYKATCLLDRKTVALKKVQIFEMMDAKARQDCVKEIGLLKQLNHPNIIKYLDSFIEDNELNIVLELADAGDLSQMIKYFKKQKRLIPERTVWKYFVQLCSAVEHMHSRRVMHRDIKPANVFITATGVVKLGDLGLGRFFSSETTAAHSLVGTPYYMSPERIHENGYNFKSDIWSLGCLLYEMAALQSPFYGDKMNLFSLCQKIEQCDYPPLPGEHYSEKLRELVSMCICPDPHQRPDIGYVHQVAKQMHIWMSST
Sequence of Serine/threonine-protein kinase 16 (Homo sapiens) (O75716 whole entry): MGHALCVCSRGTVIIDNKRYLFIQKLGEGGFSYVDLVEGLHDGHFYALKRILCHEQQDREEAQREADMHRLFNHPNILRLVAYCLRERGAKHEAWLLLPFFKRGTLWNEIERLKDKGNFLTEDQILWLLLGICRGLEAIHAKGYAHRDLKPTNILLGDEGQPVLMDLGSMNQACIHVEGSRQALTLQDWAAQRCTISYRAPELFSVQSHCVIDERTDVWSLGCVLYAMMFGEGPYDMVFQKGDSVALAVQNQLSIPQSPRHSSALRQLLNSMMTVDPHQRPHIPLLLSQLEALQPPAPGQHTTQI

Row | Compound | ΔTm [1] [°C] | ΔTm [2] [°C] | ΔTm [3] [°C] | ΔTm [4] [°C] | ΔTm [5] [°C] | ΔTm [6] [°C] | ΔTm [7] [°C]
1 | C[C@@H]1C[C@H]2O[C@@H]2/C=C\C=C\C(=O)Cc2c(Cl)c(O)cc(O)c2C(=O)O1 [RADICICOL] | 0.3 | -0.6 | 1.4 | 0.2 | 0.5 | 0.1 | -0.2
2 | CCN1/C(=C/C(C)=O)Sc2ccc(OC)cc21 | 1.7 | -1 | 0.1 | 0.2 | -0.2 | 0.3 | 0.4
3 | COc1cc2c(cc1OC)-c1n[nH]c(Nc3cccc(F)c3)c1C2 | 0.4 | 0.1 | 0.6 | -0.2 | 1.5 | -0.3 | -0.1
4 | NC(=O)c1ccc2[nH]c(-c3ccc(Oc4ccc(Cl)cc4)cc3)nc2c1 | 4.7 | 0.4 | 0.8 | -0.5 | 1.4 | 0.5 | 0.1
5 | CC(C)[C@H](CO)Nc1nc(Nc2cc(N)cc(Cl)c2)c2ncn(C(C)C)c2n1 [AMINOPURVALANOL] | 0.2 | 0 | 2.6 | 1.4 | 6.2 | 0.5 | 2.7
6 | COc1nccc(-c2c(-c3ccc(F)cc3)ncn2[C@H]2CC[C@H](O)CC2)n1 | -0.2 | -0.3 | 0.1 | 0 | 0.1 |  | -1
7 | O=C1Nc2ccccc2/C1=C/c1cnc[nH]1 | 7.5 | 0 | 2.4 | 1.3 | 5.8 | 0.8 | 3.7
8 | COc1cc(O)c2c(c1)oc(=O)c1c3cc(O)c(O)cc3oc21 [WEDELOLACTONE] | 0.1 | 0.4 | 1.9 | -0.4 | 2.9 | 0.7 | -0.3
9 | O=C1Nc2ccc(S(=O)(=O)O)cc2/C1=C1/Nc2ccccc2/C1=N\O | 4.9 | 0.8 | 0.1 | 0.7 | 10.4 | 1.8 | 3.1
10 | O=S(=O)(c1cccc2c(Cl)cccc12)N1CCCNCC1 | 1.1 | 0 | -0.5 | 0.1 | 0.4 | 0.3 | 0.3
11 | O=c1c(O)c(-c2ccc(O)c(O)c2)oc2cc(O)cc(O)c12 [QUERCETIN] | 4.8 | 1.6 | 7.4 | 1.1 | 7.4 | 2.9 | 1.6
12 | C=CNC#N | 0 | -0.2 | 0 | -0.1 | 0.1 | 1.2 | -0.1
13 | CN(C)C[C@@H]1CCn2cc(c3ccccc32)C2=C(C(=O)NC2=O)c2cn(c3ccccc23)CCO1 [RUBOXISTAURIN] | 0.8 | -0.6 | -0.5 | 0.2 | 1.5 | 0.5 | 0.3
14 | O=C(O)c1cc(N(Cc2ccccc2O)Cc2cc(O)ccc2O)ccc1O [LAVENDUSTIN A] | 2.6 | 0.4 | -0.1 | 0.6 | 1.1 | -0.1 | -0.3
15 | O=c1cc(N2CCOCC2)oc2c1ccc1ccccc12 | 0.4 | -0.2 | 0.5 | 0 | 0.2 | 0.3 | 0.1
16 | Nc1cccc(-c2cc3c(Oc4cccc(O)c4)ncnc3[nH]2)c1 | 3.5 | -1.3 | 1.7 | -0.1 | 0.8 | 0.5 | 0.6

Row | Compound | ΔTm [1] [°C] | ΔTm [2] [°C] | ΔTm [3] [°C] | ΔTm [4] [°C] | ΔTm [5] [°C] | ΔTm [6] [°C] | ΔTm [7] [°C]
17 | CCOc1cc2ncnc(Nc3cccc(Br)c3)c2cc1OCC | 0.9 | 0.7 | 1 | -0.9 | 3.8 | 0.8 | 0
18 | Cc1cc(Nc2nc(-c3ccccc3)nc3ccccc23)n[nH]1 | 5.6 | 0.4 | 2.9 | -0.4 | 1.3 | 0.6 | 1.5
19 | CN(C)CCCn1cc(C2=C(c3c[nH]c4ccccc34)C(=O)NC2=O)c2ccccc21 [GF-109203] | 2.1 | 0.9 | 2.4 | -0.2 | 3 | 0.9 | 0.7
20 | O=C(Nc1cccc(Nc2nccc(Nc3cccc(C(F)(F)F)c3)n2)c1)C1CC1 [ANILINOPYRIMIDINE1] | 2.3 | 1.7 | 1.2 | 1.6 | 2.2 | 1 | 1.6
21 | COc1cccc(-c2cc(=O)c3ccccc3o2)c1N | 0.6 | -0.1 | 0.2 | -0.2 | 0.2 | 0 | 0
22 | COc1cc(C[C@H]2C(=O)OC[C@@H]2Cc2ccc(OC)c(OC)c2)ccc1O [ARCTIGENIN] | 0 | -0.7 | -0.1 | 0 | 0 | 0.6 | -0.1
23 | O=C1NC(=O)c2c1c1c3ccccc3[nH]c1n1cncc21 [ISOGRANULATIMIDE] | 7.4 | 1.5 | 1.4 | 1.9 | 3.2 | 1.2 | 3.7
24 | NCCNS(=O)(=O)c1cccc2c(Cl)cccc12 | 0.2 | -0.4 | 0.7 | -0.2 | 0.6 | 0.4 | -0.1
25 | Cc1c2ccncc2c(C)c2c1[nH]c1ccccc12 [ELLIPTECINE] | 10.7 | 2.5 | 0.3 | 8.6 | 3.3 | 1 | 0.7
26 | COc1ccc(Cl)cc1NC(=O)Nc1cc(C)nc2ccccc12 | 0.4 | 0 | 0.6 | 3 | 3.4 | 0.3 | 1.6
27 | COc1cc(/C=C/C(=O)CC(=O)/C=C/c2ccc(O)c(OC)c2)ccc1O [CURCUMIN] | 0.9 | 0.9 | 3.7 | 0.2 | 3.3 | 1 | 3.9
28 | CC[C@H](CO)Nc1nc(NCc2ccccc2)c2ncn(C(C)C)c2n1 [SELICICLIB] |  |  | 1 | 0.2 | 0.3 | 0.3 | 0.2
29 | Cc1ccc(NC2=CC(=O)c3sc(C)nc3C2=O)cc1 | -1.2 | -0.6 | -0.2 | -3.4 | -0.3 | -0.6 | -1.3
30 | Nc1n[nH]c2nc3ccccc3nc12 [QUINOXALINE1] | 1.1 | -0.3 | 0.7 | 0.5 | 1.5 | 0.3 | 0.2
31 | Brc1c(Br)c(Br)c2[nH]nnc2c1Br [TETRABROMOBENZOTRIAZOLE] | 1.1 | 0.6 | 2.1 | -4.4 | 4.4 | 1.2 | -0.4
